Legend:
[1] = biological target: T1, 26S proteasome CT-L activity in lysate of HT29 (constitutive) vs Sultan/Thp1 (immunoproteasome) cells (Homo sapiens, UniProt P28062+P28074); experiment: CT-L EC50 with 26S proteasome in cell lysate (Lysate ratio); assay type: biochemical; details: HT29 lysate to Sultan/Thp1 lysate, >1 = prefers immunoproteasome
T1 construct: using 26S proteasome in the context of a cell lysate; endogenous in cells; host or cells: HT29 lysate (constitutive); Sultan or THP1 lysate (immunoproteasome)
T1 sequence (P28074 60-263): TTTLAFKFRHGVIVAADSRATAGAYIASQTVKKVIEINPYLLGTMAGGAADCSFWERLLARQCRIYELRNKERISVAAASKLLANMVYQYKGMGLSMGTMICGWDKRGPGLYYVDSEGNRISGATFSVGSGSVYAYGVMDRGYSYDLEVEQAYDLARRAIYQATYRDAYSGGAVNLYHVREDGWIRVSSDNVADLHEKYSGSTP
T1 sequence (P28062 73-276): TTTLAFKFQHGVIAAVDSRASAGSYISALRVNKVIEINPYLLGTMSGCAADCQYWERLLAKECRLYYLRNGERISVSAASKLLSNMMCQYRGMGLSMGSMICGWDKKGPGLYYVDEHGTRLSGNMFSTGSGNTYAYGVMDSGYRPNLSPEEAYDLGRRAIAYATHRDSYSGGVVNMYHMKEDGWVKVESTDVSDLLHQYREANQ
Procedure: Alternatively, the CT-L EC50 of a compound can be determined using 26S proteasome in the context of a cell lysate. Compound is added to lysate generated from cells that either predominantly express constitutive proteasome (e.g., HT29) or immunoproteasome (e.g., THP1). Again, the inhibitory preference is then based on the EC50 ratio (Lysate ratio).

[2] = tested on: chymotryptic-like activity of isolated 20S constitutive proteasome vs immunoproteasome; experiment: Enzyme kinetic assay with isolated 20S proteasome preps, EC50 ratio of CT-L activity (20S ratio); assay type: biochemical; details: constitutive proteasome to immunoproteasome, >1 = prefers immunoproteasome
Source text: Enzyme kinetic assays such as those disclosed in U.S. application Ser. No. 09/569,748, Example 2 and Stein et al., Biochem. (1996), 35, 3899-3908 use isolated 20S proteasome preps with greater than 90% constitutive proteasome subunits or immunoproteasome subunits. The inhibitory preference of the molecule is then based on the EC50 ratio of the chymotryptic-like activity of the constitutive proteasome to that of the immunoproteasome (20S ratio).

[3] = biological target: T2, 20S proteasome subunit β5 vs immunoproteasome subunit LMP7 in RPMI-8226 cells (Homo sapiens, UniProt P28062+P28074); experiment: ELISA-based active site assay in RPMI-8226 cells (ELISA ratio); assay type: cell-based; details: for Elisa ratio (beta5:LMP7): EC50 ratio with β5 antibody to LMP7 antibody, RPMI-8226 cells, >1 = prefers immunoproteasome
T2 construct: Cells expressing approximately equivalent amounts of immuno- and constitutive proteasome (e.g., RPMI-8226) are treated with test compound; endogenous in cells; host or cells: RPMI-8226 multiple myeloma cells
T2 sequence (P28074 60-263): T1 sequence (P28074 60-263)
T2 sequence (P28062 73-276): T1 sequence (P28062 73-276)
Procedure: Lastly, a more cell-based approach can be utilized. Cells expressing approximately equivalent amounts of immuno- and constitutive proteasome (e.g., RPMI-8226) are treated with test compound, followed by the method for determining the activity of a proteasome inhibitor as described in application Ser. No. 11/254,541. The ratio of the EC50 generated in the ELISA-based assay using β5 antibody and LMP7 antibodies (ELISA ratio) provides the basis for determining the inhibitory preference of the test compound. […] In all three assays, a ratio of less than one denotes the molecule inhibits the CT-L activity of the constitutive proteasome better than that of the immunoproteasome. Ratios greater than one signifies the molecule inhibits chymotrypsin-like activity of the immunoproteasome better than that of the constitutive proteasome.
A suitable ELISA assay may be found in U.S. patent application Ser. No. 11/254,541, incorporated herein in its entirety. Briefly, RPMI-8226 cells were treated with 0.1 nM to 1 μM of proteasome Inhibitor B. The samples were then washed with phosphate-buffered saline (PBS) and lysed in hypotonic buffer (20 mM Tris pH 8, 5 mM EDTA) (Tris-HCl and EDTA are available from Teknova, Inc., Hollister, Calif.). Cellular debris was removed by centrifugation at 14,000 rpm in a microfuge (4° C.) for 2 min. The supernatant was transferred to a fresh tube, snap frozen in liquid nitrogen and stored at −80° C. After thawing on ice, the samples (30 μl for assays run in triplicate) were treated with 500 nM of Inhibitor A for 1 hr at room temperature. Following treatment with Inhibitor A, the lysate was denatured by addition of seven volumes of 1% SDS (210 μl) (available from Bio-Rad, Hercules, Calif.) and heating at 99° C. with vigorous shaking for 5 min. The sample was allowed to cool and two volumes (60 μl) of 10% Triton X-100 (available from Bio-Rad, Hercules, Calif.) was added.
Streptavidin sepharose beads (6.5 μl/well) (available from Amersham Biosciences, Piscataway, N.J.), were washed three times with 1 ml PBS (available from Mediatech, Inc., Herndon, Va.) in a microcentrifuge tube. The beads were resuspended in ELISA wash/block buffer (PBS+0.1% Tween 20+1% bovine serum albumin; 20 μl/well) and transferred to the wells of a 96 well filter plate (BSA is available from Sigma, St. Louis, Mo.; Tween is available from Calbiochem, San Diego, Calif.). Denatured whole blood or PBMC lysates that were treated with Inhibitor 3 were added to the filter plate wells containing the streptavidin sepharose beads (each sample assayed in triplicate) and incubated for 1 hr at room temperature with shaking (MultiScreen-DV Opaque Plates with low protein binding durapore membrane; available from Millipore, Billerica, Mass.). The unbound material was removed by gentle filtration and the beads were washed six times with ELISA wash/block buffer (200 μl each).
Primary antibody to human 20S proteasome subunit (35 (rabbit polyclonal antibody; available from Biomol, Plymouth Meeting, Pa.) or human 20S immunoproteasome subunit LMP7 (rabbit polyclonal antibody; available from Affinity BioReagents, Golden, Colo.) was diluted 1:1000 in ELISA wash/block buffer, added to the beads (100 μl/well), and incubated for 1 hr at room temperature on an orbital shaker. The beads were washed six times with ELISA wash/block buffer with gentle filtration. Secondary antibody treatment (1:5000) and washing are as described for primary antibody (goat anti-rabbit antibody-HRP conjugate; available from Biosource, Camarillo, Calif.). The beads were then resuspended in 100 μl chemiluminescent detection reagent (Super Signal Pico Chemiluminescent Substrate™; available from Pierce, Rockford, Ill.) and luminescence was read on a Tecan plate reader. […]

Lysate ratio (HT29:Sultan/Thp1) [1]	20 S ratio (const:immuno) [2]	Elisa ratio (beta5:LMP7) [3]	ELISA ratio (EC50 β5 antibody : LMP7 antibody) ([3]; RPMI-8226 cells treated with 0.1 nM to 1 μM)	Structure (SMILES)
<1.0	<0.5	<0.5		CC(C)CC(NC(=O)OCc1ccccc1)C(=O)N[C@@H](CC(C)C)C(=O)N[C@@H](Cc1ccccc1)C(=O)C1(C)CO1 (some centres unmarked)
<0.5				CC(C)CC(NC(=O)Nc1ccccc1)C(=O)N[C@@H](Cc1ccccc1)C(=O)N[C@@H](CC(C)C)C(=O)C1(C)CO1 (some centres unmarked)
	<0.5			C[C@H](NC(=O)OCc1ccccc1)C(=O)N[C@@H](Cc1c[nH]c2ccccc12)C(=O)N[C@@H](C)C(=O)C1(C)CO1 (some centres unmarked)
	<0.5			CC(C)C[C@H](NC(=O)[C@H](Cc1c[nH]c2ccccc12)NC(=O)[C@H](C)NC(=O)OCc1ccccc1)C(=O)C1(C)CO1 (some centres unmarked)
>2.0	>1.0	>5.0		CC(NC(=O)OCc1ccccc1)C(=O)N[C@@H](Cc1c[nH]c2ccccc12)C(=O)N[C@@H](Cc1ccccc1)C(=O)C1(C)CO1 (some centres unmarked)
<0.5	<0.5	<0.5		CC(C)CC(NC(=O)OCc1ccccc1)C(=O)N[C@@H](CC(C)C)C(=O)N[C@@H](CC(C)C)C(=O)C1(C)CO1 (some centres unmarked)
>2.0	>2.0	>3.0		CC(NC(=O)OCc1ccccc1)C(=O)N[C@@H](Cc1cccs1)C(=O)N[C@@H](Cc1ccccc1)C(=O)C1(C)CO1 (some centres unmarked)
>3.0	>2.0	>1.0		CC1(C(=O)[C@H](Cc2ccccc2)NC(=O)[C@H](Cc2c[nH]c3ccccc23)NC(=O)C(CSCc2ccccc2)NC(=O)OCc2ccccc2)CO1 (some centres unmarked)

Further lines, the molecule ahead of its results:

Structure (SMILES)	Lysate ratio (HT29:Sultan/Thp1) [1]	20 S ratio (const:immuno) [2]	Elisa ratio (beta5:LMP7) [3]	ELISA ratio (EC50 β5 antibody : LMP7 antibody) ([3]; RPMI-8226 cells treated with 0.1 nM to 1 μM)
CC1(C(=O)[C@H](Cc2ccccc2)NC(=O)[C@H](Cc2ccccc2)NC(=O)[C@H](CCC(N)=O)NC(=O)OCc2ccccc2)CO1 (some centres unmarked)	>3.0	>2.0	>5.0	
C[C@H](NC(=O)OCc1ccccc1)C(=O)N[C@@H](Cc1c[nH]c2ccccc12)C(=O)N[C@@H](Cc1ccccc1)C(=O)C1(C)CO1 (some centres unmarked)	>2.0	>1.0	>5.0	
CC(C)C[C@H](NC(=O)CN1CCOCC1)C(=O)N[C@@H](Cc1ccccc1)C(=O)N[C@@H](CC(C)C)C(=O)C1(C)CO1 (some centres unmarked)	<0.5	<0.5	<0.5	
COc1ccc(NC(=S)N[C@@H](CC(C)C)C(=O)N[C@@H](Cc2ccccc2)C(=O)N[C@@H](CC(C)C)C(=O)C2(C)CO2)cc1 (some centres unmarked)	<0.5			
CC1(C(=O)[C@H](Cc2ccccc2)NC(=O)[C@H](Cc2c[nH]c3ccccc23)NC(=O)[C@H](CC(N)=O)NC(=O)OCc2ccccc2)CO1 (some centres unmarked)	>5.0	>1.0	>1.0	
C[C@H](NC(=O)OCc1ccccc1)C(=O)N[C@@H](Cc1ccc(C(F)(F)F)cc1)C(=O)N[C@@H](Cc1ccccc1)C(=O)C1(C)CO1 (some centres unmarked)	>3.0	>1.0	>2.0	
C[C@H](NC(=O)OCc1ccccc1)C(=O)N[C@@H](Cc1cn(C)c2ccccc12)C(=O)N[C@@H](Cc1ccccc1)C(=O)C1(C)CO1 (some centres unmarked)	>1.0	>1.0	>3.0	
C[C@H](NC(=O)OCc1ccccc1)C(=O)N[C@@H](Cc1c[nH]c2ccccc12)C(=O)N[C@H](C(=O)C1(C)CO1)c1ccccc1 (some centres unmarked)	>5.0	>2.0	>3.0	
CC(NC(=O)OCc1ccccc1)C(=O)N[C@@H](Cc1ccccc1)C(=O)N[C@@H](Cc1ccc(O)cc1)C(=O)C1(C)CO1 (some centres unmarked)	>3.0	>5.0	>3.0	
Cc1ccc(CCC(=O)N[C@@H](CC(C)C)C(=O)N[C@@H](Cc2ccccc2)C(=O)N[C@@H](CC(C)C)C(=O)C2(C)CO2)cc1 (some centres unmarked)	<0.5			
CC[C@@H](C)C(NC(=O)[C@H](Cc1ccccc1)NC(=O)C(C)NC(=O)OCc1ccccc1)C(=O)C1(C)CO1 (some centres unmarked)			<1.0	
COc1ccc(NC(=O)NC(CC(C)C)C(=O)N[C@@H](Cc2ccccc2)C(=O)N[C@@H](CC(C)C)C(=O)C2(C)CO2)cc1 (some centres unmarked)	<0.5			
CC(NC(=O)OCc1ccccc1)C(=O)N[C@@H](Cc1ccccc1)C(=O)N[C@H](C(=O)C1(C)CO1)c1ccccc1 (some centres unmarked)	>5.0	>1.0	>1.0	
CC(NC(=O)OCc1ccccc1)C(=O)N[C@@H](Cc1c[nH]c2ccccc12)C(=O)N[C@@H](Cc1ccc(O)cc1)C(=O)C1(C)CO1 (some centres unmarked)	>3.0	>3.0	>5.0	
CC(NC(=O)OCc1ccccc1)C(=O)N[C@@H](Cc1csc2ccccc12)C(=O)N[C@@H](Cc1ccccc1)C(=O)C1(C)CO1 (some centres unmarked)	>1.0	>1.0	>3.0	
CC[C@@H](NC(=O)OCc1ccccc1)C(=O)N[C@@H](Cc1c[nH]c2ccccc12)C(=O)N[C@@H](Cc1ccccc1)C(=O)C1(C)CO1 (some centres unmarked) [inhibitor (B)]				greater than 20

— patent publication US8609654B1, “Compounds for enzyme inhibition” (Onyx Therapeutics, Inc., priority 2006, dated 2013)
